{"source": "patent US9108921B2", "about": "“Therapeutic compounds and compositions” (AGIOS PHARMACEUTICALS, INC, priority 2014, dated 2015)", "type_in_all_cases": "biochemical", "key": {"PKR R532W": {"biological_target": "PKR R532W (Homo sapiens, UniProt P30613, R532W)", "sequence (P30613 whole entry R532W)": "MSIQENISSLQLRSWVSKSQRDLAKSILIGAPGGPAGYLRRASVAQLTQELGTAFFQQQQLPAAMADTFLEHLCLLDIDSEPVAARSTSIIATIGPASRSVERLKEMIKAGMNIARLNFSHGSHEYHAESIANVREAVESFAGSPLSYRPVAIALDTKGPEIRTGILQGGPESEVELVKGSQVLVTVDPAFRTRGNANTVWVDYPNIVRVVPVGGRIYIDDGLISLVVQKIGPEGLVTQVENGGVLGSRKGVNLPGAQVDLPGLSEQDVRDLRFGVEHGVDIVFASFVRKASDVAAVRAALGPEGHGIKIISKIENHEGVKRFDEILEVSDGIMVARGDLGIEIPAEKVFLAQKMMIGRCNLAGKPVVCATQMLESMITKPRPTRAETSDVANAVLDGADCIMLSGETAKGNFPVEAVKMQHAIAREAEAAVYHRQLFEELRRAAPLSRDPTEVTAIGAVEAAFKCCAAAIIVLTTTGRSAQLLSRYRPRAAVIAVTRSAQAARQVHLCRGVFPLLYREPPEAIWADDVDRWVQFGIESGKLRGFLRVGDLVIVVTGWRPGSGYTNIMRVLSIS", "test": "PKR Mutant Assay, AC50 against PKR R532W", "details": "mutant PKR R532W enzyme", "protocol": "(§1) • PKR or PKR mutant enzyme solution was diluted in assay buffer. • 2 μL of test compound was added into wells first, and then 180 μL reaction mix was added. • Reactions mixture with test compound was assembled except for ADP, and plates were stored for 60 minutes at room temperature. • 20 uL ADP was added to start reaction at room temperature and reaction progress was measured as changes in absorbance at 340 nm wavelength at room temperature.\n(§2) Test Compound Preparation: • Test compound stock was made at 100× concentration in 100% DMSO (10 mM) • 1 to 3 dilutions were made for 11 points (i.e. 50 μl of first concentration added to 100 μl 100% DMSO to yield 3.33 mM, 50 μl of this added to 100 μl DMSO to yield 1.11 mM, and so forth) • 1 to 100 dilution into assay (2 μl in 200 μl) yielded starting concentration of 100 μM, decreasing 3 fold for 11 points. Assay Buffer: 100 mM KCl, 50 mM Tris 7.5, 5 mM MgCl2, 1 mM DTT, 0.03% BSA Reaction Mixture: PKR mutant enzyme: 80-400 ng/well; ADP: 0.22-1.65 mM; PEP: 0.1-0.5 mM; NADH: 180 uM; LDH: 0.5 units (Sigma#59023); DTT: 1 mM; BSA: 0.03%."}, "PKR R510Q": {"biological_target": "PKR R510Q (Homo sapiens, UniProt P30613, R510Q)", "sequence (P30613 whole entry R510Q)": "as the sequence (P30613 whole entry R532W) above, with R510Q, W532R counted along it", "test": "PKR Mutant Assay, AC50 against PKR R510Q", "details": "mutant PKR R510Q enzyme", "protocol": "as §1, §2"}, "PKR WT": {"biological_target": "PKR WT (Homo sapiens, UniProt P30613)", "sequence (P30613 whole entry)": "as the sequence (P30613 whole entry R532W) above, with W532R counted along it", "test": "PKR WT enzymatic AC50 assay", "details": "wild type PKR", "protocol": "as §1, §2"}}, "data": [{"smiles": "CC(C)CC1(O)CCN(C(=O)c2ccc(NS(=O)(=O)c3c(F)ccc4ncsc34)cc2)CC1", "note": "[Compound 309]", "values": [{"measurement": "AC50", "setting": "PKR R532W", "result": "1.01 to 10", "unit": "µM"}, {"measurement": "AC50", "setting": "PKR R510Q", "result": "> 10", "unit": "µM"}, {"measurement": "AC50", "setting": "PKR WT", "result": "1.01 to 10", "unit": "µM"}]}, {"smiles": "O=C(c1ccc(N[S+]([O-])c2cccc3cccnc23)cc1)N1CCC(O)(c2ccccc2Cl)CC1", "note": "(stereo not drawn) [Compound 311]", "values": [{"measurement": "AC50", "setting": "PKR R532W", "result": "1.01 to 10", "unit": "µM"}, {"measurement": "AC50", "setting": "PKR R510Q", "result": "> 10", "unit": "µM"}, {"measurement": "AC50", "setting": "PKR WT", "result": "1.01 to 10", "unit": "µM"}]}, {"smiles": "CC(C)CC1(O)CCN(C(=O)c2ccc(NS(=O)(=O)c3cccn4ccnc34)cc2)CC1", "note": "[Compound 312]", "values": [{"measurement": "AC50", "setting": "PKR R532W", "result": "1.01 to 10", "unit": "µM"}, {"measurement": "AC50", "setting": "PKR R510Q", "result": "> 10", "unit": "µM"}, {"measurement": "AC50", "setting": "PKR WT", "result": "1.01 to 10", "unit": "µM"}]}, {"smiles": "O=C(c1ccc(NS(=O)(=O)c2cccc3ccnnc23)cc1)N1CCC(O)(c2ccccc2Cl)CC1", "note": "[Compound 313]", "values": [{"measurement": "AC50", "setting": "PKR R532W", "result": "> 10", "unit": "µM"}, {"measurement": "AC50", "setting": "PKR R510Q", "result": "> 10", "unit": "µM"}, {"measurement": "AC50", "setting": "PKR WT", "result": "1.01 to 10", "unit": "µM"}]}, {"smiles": "CC(C)CC1(O)CCN(C(=O)c2ccc(NS(=O)(=O)c3ccnc4scnc34)cc2)CC1", "note": "[Compound 314]", "values": [{"measurement": "AC50", "setting": "PKR R532W", "result": "> 10", "unit": "µM"}, {"measurement": "AC50", "setting": "PKR R510Q", "result": "> 10", "unit": "µM"}, {"measurement": "AC50", "setting": "PKR WT", "result": "1.01 to 10", "unit": "µM"}]}, {"smiles": "O=C(c1ccc(NS(=O)(=O)c2c[nH]c3cccnc23)cc1)N1CCC(O)(c2ccccc2Cl)CC1", "note": "[Compound 316]", "values": [{"measurement": "AC50", "setting": "PKR R532W", "result": "> 10", "unit": "µM"}, {"measurement": "AC50", "setting": "PKR R510Q", "result": "> 10", "unit": "µM"}, {"measurement": "AC50", "setting": "PKR WT", "result": "> 10", "unit": "µM"}]}, {"smiles": "O=C(c1ccc(NS(=O)(=O)n2ccc3cccnc32)cc1)N1CCC(O)(c2ccccc2Cl)CC1", "note": "[Compound 318]", "values": [{"measurement": "AC50", "setting": "PKR R532W", "result": "> 10", "unit": "µM"}, {"measurement": "AC50", "setting": "PKR R510Q", "result": "> 10", "unit": "µM"}, {"measurement": "AC50", "setting": "PKR WT", "result": "> 10", "unit": "µM"}]}, {"smiles": "O=C(c1ccc(NS(=O)(=O)c2cccc3cccnc23)cc1)N1CCC(C(=O)O)(c2ccccc2)CC1", "note": "[Compound 320]", "values": [{"measurement": "AC50", "setting": "PKR R532W", "result": "> 10", "unit": "µM"}, {"measurement": "AC50", "setting": "PKR R510Q", "result": "> 10", "unit": "µM"}, {"measurement": "AC50", "setting": "PKR WT", "result": "> 10", "unit": "µM"}]}, {"smiles": "O=C(c1ccc(NS(=O)(=O)Cc2ccccn2)cc1)N1CCC(O)(c2ccccc2Cl)CC1", "note": "[Compound 322]", "values": [{"measurement": "AC50", "setting": "PKR R532W", "result": "> 10", "unit": "µM"}, {"measurement": "AC50", "setting": "PKR R510Q", "result": "> 10", "unit": "µM"}, {"measurement": "AC50", "setting": "PKR WT", "result": "> 10", "unit": "µM"}]}, {"smiles": "CC(C)CC1(O)CCN(C(=O)c2ccc(NS(=O)(=O)Cc3ccccn3)cc2)CC1", "note": "[Compound 324]", "values": [{"measurement": "AC50", "setting": "PKR R532W", "result": "> 10", "unit": "µM"}, {"measurement": "AC50", "setting": "PKR R510Q", "result": "> 10", "unit": "µM"}, {"measurement": "AC50", "setting": "PKR WT", "result": "> 10", "unit": "µM"}]}, {"smiles": "O=C(c1ccc(NS(=O)(=O)c2ccc(F)c3scnc23)cc1)N1CCC(O)(c2ccccc2Cl)CC1", "note": "[Compound 368]", "values": [{"measurement": "AC50", "setting": "PKR R532W", "result": "0.101 to 1", "unit": "µM"}, {"measurement": "AC50", "setting": "PKR R510Q", "result": "1.01 to 10", "unit": "µM"}, {"measurement": "AC50", "setting": "PKR WT", "result": "0.101 to 1", "unit": "µM"}]}, {"smiles": "CC(C)CC1(O)CCN(C(=O)c2ccc(NS(=O)(=O)c3ccc(F)c4scnc34)cc2)CC1", "note": "[Compound 372]", "values": [{"measurement": "AC50", "setting": "PKR R532W", "result": "0.101 to 1", "unit": "µM"}, {"measurement": "AC50", "setting": "PKR R510Q", "result": "0.101 to 1", "unit": "µM"}, {"measurement": "AC50", "setting": "PKR WT", "result": "0.101 to 1", "unit": "µM"}]}, {"smiles": "CC(C)CC1(O)CCN(C(=O)c2ccc(NS(=O)(=O)c3cccc4csnc34)cc2)CC1", "note": "[Compound 376]", "values": [{"measurement": "AC50", "setting": "PKR R532W", "result": "0.101 to 1", "unit": "µM"}, {"measurement": "AC50", "setting": "PKR R510Q", "result": "1.01 to 10", "unit": "µM"}, {"measurement": "AC50", "setting": "PKR WT", "result": "0.101 to 1", "unit": "µM"}]}, {"smiles": "O=C(c1ccc(NS(=O)(=O)c2ccc(F)c3scnc23)cc1)N1CCC(O)(c2ccccc2Cl)CC1", "note": "[Compound 378, N-(4-(4-(2-chlorophenyl)-4-hydroxypiperidine-1-carbonyl)phenyl)-7-fluorobenzo[d]thiazole-4-sulfonamide]", "values": [{"measurement": "AC50", "setting": "PKR R532W", "result": "0.101 to 1", "unit": "µM"}, {"measurement": "AC50", "setting": "PKR R510Q", "result": "1.01 to 10", "unit": "µM"}, {"measurement": "AC50", "setting": "PKR WT", "result": "0.101 to 1", "unit": "µM"}]}, {"smiles": "O=C(c1ccc(NS(=O)(=O)c2cccc3ocnc23)cc1)N1CCC(O)(c2ccccc2Cl)CC1", "note": "[Compound 381, N-(4-(4-(2-chlorophenyl)-4-hydroxypiperidine-1-carbonyl)phenyl)benzo[d]oxazole-4-sulfonamide]", "values": [{"measurement": "AC50", "setting": "PKR R532W", "result": "0.101 to 1", "unit": "µM"}, {"measurement": "AC50", "setting": "PKR R510Q", "result": "0.101 to 1", "unit": "µM"}, {"measurement": "AC50", "setting": "PKR WT", "result": "< 0.1", "unit": "µM"}]}, {"smiles": "Cc1nc2c(S(=O)(=O)Nc3ccc(C(=O)N4CCC(O)(CC(C)C)CC4)cc3)cccc2o1", "note": "[Compound 384, N-(4-(4-hydroxy-4-isobutylpiperidine-1-carbonyl)phenyl)-2-methylbenzo[d]oxazole-4-sulfonamide]", "values": [{"measurement": "AC50", "setting": "PKR R532W", "result": "0.101 to 1", "unit": "µM"}, {"measurement": "AC50", "setting": "PKR R510Q", "result": "0.101 to 1", "unit": "µM"}, {"measurement": "AC50", "setting": "PKR WT", "result": "0.101 to 1", "unit": "µM"}]}, {"smiles": "O=C(c1ccc(NS(=O)(=O)c2cccc3scnc23)cc1)N1CCC(O)(COCC(F)(F)F)CC1", "note": "[Compound 386, N-(4-(4-hydroxy-4-((2,2,2-trifluoroethoxy)methyl)piperidine-1-carbonyl)phenyl)benzo[d]thiazole-4-sulfonamide]", "values": [{"measurement": "AC50", "setting": "PKR R532W", "result": "0.101 to 1", "unit": "µM"}, {"measurement": "AC50", "setting": "PKR R510Q", "result": "0.101 to 1", "unit": "µM"}, {"measurement": "AC50", "setting": "PKR WT", "result": "0.101 to 1", "unit": "µM"}]}, {"smiles": "CNc1nc2c(S(=O)(=O)Nc3ccc(C(=O)N4CCC(O)(c5ccccc5Cl)CC4)cc3)cccc2s1", "note": "[Compound 409]", "values": [{"measurement": "AC50", "setting": "PKR R532W", "result": "< 0.1", "unit": "µM"}, {"measurement": "AC50", "setting": "PKR R510Q", "result": "< 0.1", "unit": "µM"}, {"measurement": "AC50", "setting": "PKR WT", "result": "< 0.1", "unit": "µM"}]}, {"smiles": "O=C(c1ccc(NS(=O)(=O)c2cccc3scnc23)cc1)N1CCC(O)(c2cn[nH]c2)CC1", "note": "[Compound 410, N-[4-[4-hydroxy-4-(1H-pyrazol-4-yl)piperidine-1-carbonyl]phenyl]benzothiazole-4-sulfonamide]", "values": [{"measurement": "AC50", "setting": "PKR R532W", "result": "0.101 to 1", "unit": "µM"}, {"measurement": "AC50", "setting": "PKR R510Q", "result": "> 10", "unit": "µM"}, {"measurement": "AC50", "setting": "PKR WT", "result": "0.101 to 1", "unit": "µM"}]}, {"smiles": "CC(F)(F)CC1(O)CCN(C(=O)c2ccc(NS(=O)(=O)c3cccc4scnc34)cc2)CC1", "note": "[Compound 413]", "values": [{"measurement": "AC50", "setting": "PKR R532W", "result": "0.101 to 1", "unit": "µM"}, {"measurement": "AC50", "setting": "PKR R510Q", "result": "0.101 to 1", "unit": "µM"}, {"measurement": "AC50", "setting": "PKR WT", "result": "0.101 to 1", "unit": "µM"}]}, {"smiles": "O=C(c1ccc(NS(=O)(=O)c2cccc3snnc23)cc1)N1CCC(O)(c2ccccc2Cl)CC1", "note": "[Compound 417]", "values": [{"measurement": "AC50", "setting": "PKR R532W", "result": "1.01 to 10", "unit": "µM"}, {"measurement": "AC50", "setting": "PKR R510Q", "result": "> 10", "unit": "µM"}, {"measurement": "AC50", "setting": "PKR WT", "result": "1.01 to 10", "unit": "µM"}]}, {"smiles": "Nc1nc2cc(S(=O)(=O)Nc3ccc(C(=O)N4CCC(O)(c5ccccc5Cl)CC4)cc3)c(F)cc2s1", "note": "[Compound 418]", "values": [{"measurement": "AC50", "setting": "PKR R532W", "result": "> 10", "unit": "µM"}, {"measurement": "AC50", "setting": "PKR R510Q", "result": "> 10", "unit": "µM"}, {"measurement": "AC50", "setting": "PKR WT", "result": "1.01 to 10", "unit": "µM"}]}]}
